Columns and labels:
[1] = system: fruitfly; test: Reproduction of fruitfly; type: in vivo, Drosophila (fruitfly)
Excerpt: Several known Hsp90 inhibitors are listed above. With regard to HSP90, RC-MC-110 likely a novel inhibitor of the N-terminal ATP binding site or a novel site on Hsp90. It should be noted that mutants of Hsp90 in Drosophila (fruitfly) produce sterile males and females. […] Genetics. 1999 March; 151(3):1065-79.

[2] = system: male rats; test: Fertility trials following oral administration (challenge mating); type: in vivo, rat; details: for MALES MATED/MALES FERTILE: Table 9C
Method: The following table illustrates the results of a single oral does of 6 mg/kg of RC-MC-110 orally to male rats. […] The ethyl alcohol was evaporated 10% prior to administration. The “embryos normal” and “embryos abnormal” represents the mean number of embryos per pregnant female. […]
The following table illustrates the results of a single oral does of four different doses of RC-MC-110 orally to male rats.

[3] = Table 9A, seven consecutive daily oral doses of 6 mg/day, week 1
[4] = Table 9A, seven consecutive daily oral doses of 6 mg/day, week 2
[5] = Table 9A, seven consecutive daily oral doses of 6 mg/day, week 3
[6] = Table 9A, seven consecutive daily oral doses of 6 mg/day, week 4
[7] = Table 9A, seven consecutive daily oral doses of 6 mg/day, week 5
[8] = Table 9A, seven consecutive daily oral doses of 6 mg/day, week 6
[9] = Table 9A, seven consecutive daily oral doses of 6 mg/day, week 7
[10] = Table 9A, seven consecutive daily oral doses of 6 mg/day, week 8
[11] = Table 9A, seven consecutive daily oral doses of 6 mg/day, week 9
[12] = Table 9A, seven consecutive daily oral doses of 6 mg/day, week 10
[13] = Table 9A, seven consecutive daily oral doses of 6 mg/day, week 12
[14] = Table 9A, seven consecutive daily oral doses of 6 mg/day, week 13
[15] = Table 9A, seven consecutive daily oral doses of 6 mg/day, week 14
[16] = Table 9A, seven consecutive daily oral doses of 6 mg/day, week 18
[17] = Table 9B, single oral dose of 6 mg/kg, week 1
[18] = Table 9B, single oral dose of 6 mg/kg, week 2
[19] = Table 9B, single oral dose of 6 mg/kg, week 3
[20] = Table 9B, single oral dose of 6 mg/kg, week 4
[21] = Table 9B, single oral dose of 6 mg/kg, week 5
[22] = Table 9B, single oral dose of 6 mg/kg, week 6
[23] = Table 9B, single oral dose of 6 mg/kg, week 7
[24] = Table 9B, single oral dose of 6 mg/kg, week 8
[25] = Table 9B, single oral dose of 6 mg/kg, week 9
[26] = Table 9B, single oral dose of 6 mg/kg, week 10
[27] = Table 9B, single oral dose of 6 mg/kg, week 12
[28] = Table 9B, single oral dose of 6 mg/kg, week 13
[29] = Table 9B, single oral dose of 6 mg/kg, week 14
[30] = Table 9B, single oral dose of 6 mg/kg, week 18
[31] = Table 9B, single oral dose of 6 mg/kg, week 26

## O=C(O)/C=C/c1nn(Cc2ccc(Cl)cc2Cl)c2cc(C(F)(F)F)ccc12 [RC-MC-110, trans 3-[1-(2,4-dichlorobenzyl)-6-trifluoromethyl-1H-indazol-3-yl]-acrylic acid]
[1]; in vivo
  Potency on fruitfly reproduction, compared with lonidamine: more potent than lonidamine
[1]; provided to a fruitfly
  Reproduction of fruitfly: inhibited reproduction
[2]; [3]
  Embryos abnormal (mean number per pregnant female): 0.2
  Embryos normal (mean number per pregnant female): 15
[2]; Table 9A, seven consecutive daily oral doses of 6 mg/day, week 1, 7 males mated
  Males fertile: 7
[2]; [4]
  Embryos abnormal (mean number per pregnant female): 0.3
  Embryos normal (mean number per pregnant female): 13
[2]; Table 9A, seven consecutive daily oral doses of 6 mg/day, week 2, 7 males mated
  Males fertile: 7
[2]; [5]
  Embryos abnormal (mean number per pregnant female): 0
  Embryos normal (mean number per pregnant female): 7
[2]; Table 9A, seven consecutive daily oral doses of 6 mg/day, week 3, 7 males mated
  Males fertile: 2
[2]; [6]
  Embryos abnormal (mean number per pregnant female): 0.5
  Embryos normal (mean number per pregnant female): 7
[2]; Table 9A, seven consecutive daily oral doses of 6 mg/day, week 4, 7 males mated
  Males fertile: 3
[2]; [7]
  Embryos abnormal (mean number per pregnant female): 0
  Embryos normal (mean number per pregnant female): 0
[2]; Table 9A, seven consecutive daily oral doses of 6 mg/day, week 5, 7 males mated
  Males fertile: 0
[2]; [8]
  Embryos abnormal (mean number per pregnant female): 0
  Embryos normal (mean number per pregnant female): 0
[2]; Table 9A, seven consecutive daily oral doses of 6 mg/day, week 6, 7 males mated
  Males fertile: 0
[2]; [9]
  Embryos abnormal (mean number per pregnant female): 0
  Embryos normal (mean number per pregnant female): 0
[2]; Table 9A, seven consecutive daily oral doses of 6 mg/day, week 7, 7 males mated
  Males fertile: 0
[2]; [10]
  Embryos abnormal (mean number per pregnant female): 0
  Embryos normal (mean number per pregnant female): 0
[2]; Table 9A, seven consecutive daily oral doses of 6 mg/day, week 8, 6 males mated
  Males fertile: 0
[2]; [11]
  Embryos abnormal (mean number per pregnant female): 1
  Embryos normal (mean number per pregnant female): 9
[2]; Table 9A, seven consecutive daily oral doses of 6 mg/day, week 9, 7 males mated
  Males fertile: 1
[2]; [12]
  Embryos abnormal (mean number per pregnant female): 0
  Embryos normal (mean number per pregnant female): 2
[2]; Table 9A, seven consecutive daily oral doses of 6 mg/day, week 10, 7 males mated
  Males fertile: 1
[2]; [13]
  Embryos abnormal (mean number per pregnant female): 0.3
  Embryos normal (mean number per pregnant female): 14
[2]; Table 9A, seven consecutive daily oral doses of 6 mg/day, week 12, 7 males mated
  Males fertile: 2
[2]; [14]
  Embryos abnormal (mean number per pregnant female): 0.3
  Embryos normal (mean number per pregnant female): 15
[2]; Table 9A, seven consecutive daily oral doses of 6 mg/day, week 13, 7 males mated
  Males fertile: 2
[2]; [15]
  Embryos abnormal (mean number per pregnant female): 0
  Embryos normal (mean number per pregnant female): 14
[2]; Table 9A, seven consecutive daily oral doses of 6 mg/day, week 14, 7 males mated
  Males fertile: 2
[2]; [16]
  Embryos abnormal (mean number per pregnant female): 0
  Embryos normal (mean number per pregnant female): 14
[2]; Table 9A, seven consecutive daily oral doses of 6 mg/day, week 18, 7 males mated
  Males fertile: 2
[2]; [17]
  Embryos abnormal (mean number per pregnant female): 0.2
  Embryos normal (mean number per pregnant female): 15
[2]; Table 9B, single oral dose of 6 mg/kg, week 1, 7 males mated
  Males fertile: 7
[2]; [18]
  Embryos abnormal (mean number per pregnant female): 0.3
  Embryos normal (mean number per pregnant female): 12
[2]; Table 9B, single oral dose of 6 mg/kg, week 2, 7 males mated
  Males fertile: 7
[2]; [19]
  Embryos abnormal (mean number per pregnant female): 2
  Embryos normal (mean number per pregnant female): 6
[2]; Table 9B, single oral dose of 6 mg/kg, week 3, 7 males mated
  Males fertile: 2
[2]; [20]
  Embryos abnormal (mean number per pregnant female): 0
  Embryos normal (mean number per pregnant female): 0
[2]; Table 9B, single oral dose of 6 mg/kg, week 4, 7 males mated
  Males fertile: 0
[2]; [21]
  Embryos abnormal (mean number per pregnant female): 0
  Embryos normal (mean number per pregnant female): 0
[2]; Table 9B, single oral dose of 6 mg/kg, week 5, 7 males mated
  Males fertile: 0
[2]; [22]
  Embryos abnormal (mean number per pregnant female): 1
  Embryos normal (mean number per pregnant female): 10
[2]; Table 9B, single oral dose of 6 mg/kg, week 6, 7 males mated
  Males fertile: 1
[2]; [23]
  Embryos abnormal (mean number per pregnant female): 0
  Embryos normal (mean number per pregnant female): 13
[2]; Table 9B, single oral dose of 6 mg/kg, week 7, 7 males mated
  Males fertile: 2
[2]; [24]
  Embryos abnormal (mean number per pregnant female): 1
  Embryos normal (mean number per pregnant female): 12
[2]; Table 9B, single oral dose of 6 mg/kg, week 8, 7 males mated
  Males fertile: 3
[2]; [25]
  Embryos abnormal (mean number per pregnant female): 0.4
  Embryos normal (mean number per pregnant female): 12
[2]; Table 9B, single oral dose of 6 mg/kg, week 9, 7 males mated
  Males fertile: 4
[2]; [26]
  Embryos abnormal (mean number per pregnant female): 1
  Embryos normal (mean number per pregnant female): 11
[2]; Table 9B, single oral dose of 6 mg/kg, week 10, 7 males mated
  Males fertile: 3
[2]; [27]
  Embryos abnormal (mean number per pregnant female): 0.1
  Embryos normal (mean number per pregnant female): 14
[2]; Table 9B, single oral dose of 6 mg/kg, week 12, 7 males mated
  Males fertile: 4
[2]; [28]
  Embryos abnormal (mean number per pregnant female): 1.0
  Embryos normal (mean number per pregnant female): 14
[2]; Table 9B, single oral dose of 6 mg/kg, week 13, 7 males mated
  Males fertile: 3
[2]; [29]
  Embryos abnormal (mean number per pregnant female): 0.7
  Embryos normal (mean number per pregnant female): 11
[2]; Table 9B, single oral dose of 6 mg/kg, week 14, 7 males mated
  Males fertile: 4
[2]; [30]
  Embryos abnormal (mean number per pregnant female): 0.7
  Embryos normal (mean number per pregnant female): 14
[2]; Table 9B, single oral dose of 6 mg/kg, week 18, 7 males mated
  Males fertile: 4
[2]; [31]
  Embryos abnormal (mean number per pregnant female): 0.6
  Embryos normal (mean number per pregnant female): 13
[2]; Table 9B, single oral dose of 6 mg/kg, week 26, 7 males mated
  Males fertile: 3
[2]; single oral dose 0.75 MG/KG in 10% ethyl alcohol and sesame oil, week 1
  MALES MATED/MALES FERTILE: 6/6
[2]; single oral dose 0.75 MG/KG in 10% ethyl alcohol and sesame oil, week 2
  MALES MATED/MALES FERTILE: 8/8
[2]; single oral dose 0.75 MG/KG in 10% ethyl alcohol and sesame oil, week 3
  MALES MATED/MALES FERTILE: 6/6
[2]; single oral dose 0.75 MG/KG in 10% ethyl alcohol and sesame oil, week 4
  MALES MATED/MALES FERTILE: 6/6
[2]; single oral dose 0.75 MG/KG in 10% ethyl alcohol and sesame oil, week 5
  MALES MATED/MALES FERTILE: 6/6
[2]; single oral dose 0.75 MG/KG in 10% ethyl alcohol and sesame oil, week 6
  MALES MATED/MALES FERTILE: 6/6
[2]; single oral dose 0.75 MG/KG in 10% ethyl alcohol and sesame oil, week 7
  MALES MATED/MALES FERTILE: 6/6
[2]; single oral dose 0.75 MG/KG in 10% ethyl alcohol and sesame oil, week 8
  MALES MATED/MALES FERTILE: 6/6
[2]; single oral dose 1.5 MG/KG in 10% ethyl alcohol and sesame oil, week 1
  MALES MATED/MALES FERTILE: 6/5
[2]; single oral dose 1.5 MG/KG in 10% ethyl alcohol and sesame oil, week 2
  MALES MATED/MALES FERTILE: 6/6
[2]; single oral dose 1.5 MG/KG in 10% ethyl alcohol and sesame oil, week 3
  MALES MATED/MALES FERTILE: 6/5
[2]; single oral dose 1.5 MG/KG in 10% ethyl alcohol and sesame oil, week 4
  MALES MATED/MALES FERTILE: 6/5
[2]; single oral dose 1.5 MG/KG in 10% ethyl alcohol and sesame oil, week 5
  MALES MATED/MALES FERTILE: 6/6
[2]; single oral dose 1.5 MG/KG in 10% ethyl alcohol and sesame oil, week 6
  MALES MATED/MALES FERTILE: 6/6
[2]; single oral dose 1.5 MG/KG in 10% ethyl alcohol and sesame oil, week 7
  MALES MATED/MALES FERTILE: 6/6
[2]; single oral dose 1.5 MG/KG in 10% ethyl alcohol and sesame oil, week 8
  MALES MATED/MALES FERTILE: 6/6
[2]; single oral dose 1.5 MG/KG in 10% ethyl alcohol and sesame oil, week 9
  MALES MATED/MALES FERTILE: 6/6
[2]; single oral dose 3.0 MG/KG in 10% ethyl alcohol and sesame oil, week 1
  MALES MATED/MALES FERTILE: 6/6
[2]; single oral dose 3.0 MG/KG in 10% ethyl alcohol and sesame oil, week 2
  MALES MATED/MALES FERTILE: 6/6
[2]; single oral dose 3.0 MG/KG in 10% ethyl alcohol and sesame oil, week 3
  MALES MATED/MALES FERTILE: 6/3
[2]; single oral dose 3.0 MG/KG in 10% ethyl alcohol and sesame oil, week 4
  MALES MATED/MALES FERTILE: 6/2
[2]; single oral dose 3.0 MG/KG in 10% ethyl alcohol and sesame oil, week 5
  MALES MATED/MALES FERTILE: 6/6
[2]; single oral dose 3.0 MG/KG in 10% ethyl alcohol and sesame oil, week 6
  MALES MATED/MALES FERTILE: 6/6
[2]; single oral dose 3.0 MG/KG in 10% ethyl alcohol and sesame oil, week 7
  MALES MATED/MALES FERTILE: 6/6
[2]; single oral dose 3.0 MG/KG in 10% ethyl alcohol and sesame oil, week 8
  MALES MATED/MALES FERTILE: 6/6
[2]; single oral dose 3.0 MG/KG in 10% ethyl alcohol and sesame oil, week 9
  MALES MATED/MALES FERTILE: 6/6
[2]; single oral dose 6.0 MG/KG in 10% ethyl alcohol and sesame oil, week 1
  MALES MATED/MALES FERTILE: 7/7
[2]; single oral dose 6.0 MG/KG in 10% ethyl alcohol and sesame oil, week 2
  MALES MATED/MALES FERTILE: 7/7
[2]; single oral dose 6.0 MG/KG in 10% ethyl alcohol and sesame oil, week 3
  MALES MATED/MALES FERTILE: 7/2
[2]; single oral dose 6.0 MG/KG in 10% ethyl alcohol and sesame oil, week 4
  MALES MATED/MALES FERTILE: 7/0
[2]; single oral dose 6.0 MG/KG in 10% ethyl alcohol and sesame oil, week 5
  MALES MATED/MALES FERTILE: 7/0
[2]; single oral dose 6.0 MG/KG in 10% ethyl alcohol and sesame oil, week 6
  MALES MATED/MALES FERTILE: 7/1
[2]; single oral dose 6.0 MG/KG in 10% ethyl alcohol and sesame oil, week 7
  MALES MATED/MALES FERTILE: 7/2
[2]; single oral dose 6.0 MG/KG in 10% ethyl alcohol and sesame oil, week 8
  MALES MATED/MALES FERTILE: 7/3
[2]; single oral dose 6.0 MG/KG in 10% ethyl alcohol and sesame oil, week 9
  MALES MATED/MALES FERTILE: 7/4
[2]; single oral dose 6.0 MG/KG in 10% ethyl alcohol and sesame oil, week 10
  MALES MATED/MALES FERTILE: 7/3
[2]; single oral dose 6.0 MG/KG in 10% ethyl alcohol and sesame oil, week 12
  MALES MATED/MALES FERTILE: 7/4
[2]; single oral dose 6.0 MG/KG in 10% ethyl alcohol and sesame oil, week 13
  MALES MATED/MALES FERTILE: 7/3
[2]; single oral dose 6.0 MG/KG in 10% ethyl alcohol and sesame oil, week 14
  MALES MATED/MALES FERTILE: 7/4

— patent publication US8362031B2, “Lonidamine analogues and treatment of polycystic kidney disease” (University of Kansas, priority 2004, dated 2013)
